Where a name gives a salt, the structure may show the parent alone.
Legend:
[1] = target: T1, human JAK2 kinase domain (JH1) (Homo sapiens, UniProt O60674); test: JH1 biochemical assay for JAK2 (ADP-Glo kinase assay, recombinant JH1 catalytic domain, JAK3-974 peptide, 15 μM ATP)
T1 construct: recombinantly generated catalytic kinase (also known as JH1) domain of human JAK1, JAK2, JAK3 and TYK2
In short: (§1)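 Kinase 4 nM JAK1 / 0.2 nM JAK2 / 0.3 nM JAK3 / 2 nM TYK2; 50 μM peptide; 100 min. Unused ATP depleted, ADP→ATP, luciferase luminescence. 11-pt 3-fold series from 10 or 1 μM; normalized, 4PL fit → IC50.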

[2] = target: Tyk2 kinase activity on STAT4 in NK92 cells (Homo sapiens, UniProt P29597); test: pSTAT4 cell assay (MSD; NK92 cells, 30 ng/mL IL2 stimulation); type: cell-based; details: 30 ng/mL IL2, 15 minutes
In short: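 IC50 values come from 4-parameter logistic fits of normalized percent activity. Phospho-STAT was read by MSD (anti-STAT4 antibodies) in NK92 lysates after a 15 min stimulation with 30 ng/mL IL2. The serum-starved cells had been given compound for 1 h (10 points, four-fold, top 10 μM).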

[3] = target: T2, human TYK2 kinase domain (JH1) (Homo sapiens, UniProt P29597); test: JH1 biochemical assay for TYK2 (ADP-Glo kinase assay, recombinant JH1 catalytic domain, JAK3-974 peptide, 10 μM ATP)
T2 construct: recombinantly generated catalytic kinase (also known as JH1) domain of human JAK1, JAK2, JAK3 and TYK2
T2 sequence (P29597 897-1176 limits assumed): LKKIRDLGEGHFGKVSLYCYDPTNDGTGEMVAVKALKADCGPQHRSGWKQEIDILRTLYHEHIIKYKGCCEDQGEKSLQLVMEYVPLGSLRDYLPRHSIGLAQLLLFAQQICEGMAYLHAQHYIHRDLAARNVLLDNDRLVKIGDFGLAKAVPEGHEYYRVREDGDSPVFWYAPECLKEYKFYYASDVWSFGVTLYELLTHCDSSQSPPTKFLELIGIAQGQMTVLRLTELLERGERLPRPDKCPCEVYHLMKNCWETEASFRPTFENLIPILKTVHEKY
In short: as §1

[4] = target: JAK2 kinase activity on STAT5 in TF1 cells (Homo sapiens, UniProt O60674); test: pSTAT5 cell assay (MSD; TF1 cells, 30 ng/mL IL-3 stimulation); type: cell-based; details: 30 ng/mL IL-3, 15 minutes
In short: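 IC50 from a 4-parameter logistic fit of normalized pSTAT5 signal, measured by MSD in lysates of TF1 cells. Cells were serum-starved, exposed to compound for 1 h (top concentration 10 μM, four-fold, 10 points), then given IL-3 at 30 ng/mL for 15 min.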

[5] = target: JAK1 kinase activity on STAT3 in TF1 cells (Homo sapiens, UniProt P23458); test: pSTAT3 cell assay (MSD; TF1 cells, 30 ng/mL IL-6 stimulation); type: cell-based; details: 30 ng/mL IL-6, 15 minutes
In short: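 IC50 values derive from 4-parameter logistic fits of normalized pSTAT3 signal, measured by MSD with anti-STAT3 antibodies. TF1 cells, serum-starved beforehand, received compound for 1 hour (top concentration 10 μM, four-fold steps, 10 points) before a 15-minute IL-6 (30 ng/mL) stimulus.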

[6] = target: T3, human JAK3 kinase domain (JH1) (Homo sapiens, UniProt P52333); test: JH1 biochemical assay for JAK3 (ADP-Glo kinase assay, recombinant JH1 catalytic domain, JAK3-974 peptide, 4 μM ATP)
T3 construct: recombinantly generated catalytic kinase (also known as JH1) domain of human JAK1, JAK2, JAK3 and TYK2
In short: as §1

[7] = target: T4, human JAK1 kinase domain (JH1) (Homo sapiens, UniProt P23458); test: JH1 biochemical assay for JAK1 (ADP-Glo kinase assay, recombinant JH1 catalytic domain, JAK3-342 peptide, 35 μM ATP)
T4 construct: recombinantly generated catalytic kinase (also known as JH1) domain of human JAK1, JAK2, JAK3 and TYK2
In short: as §1

Sequence of JAK2 kinase activity on STAT5 in TF1 cells (O60674 whole entry): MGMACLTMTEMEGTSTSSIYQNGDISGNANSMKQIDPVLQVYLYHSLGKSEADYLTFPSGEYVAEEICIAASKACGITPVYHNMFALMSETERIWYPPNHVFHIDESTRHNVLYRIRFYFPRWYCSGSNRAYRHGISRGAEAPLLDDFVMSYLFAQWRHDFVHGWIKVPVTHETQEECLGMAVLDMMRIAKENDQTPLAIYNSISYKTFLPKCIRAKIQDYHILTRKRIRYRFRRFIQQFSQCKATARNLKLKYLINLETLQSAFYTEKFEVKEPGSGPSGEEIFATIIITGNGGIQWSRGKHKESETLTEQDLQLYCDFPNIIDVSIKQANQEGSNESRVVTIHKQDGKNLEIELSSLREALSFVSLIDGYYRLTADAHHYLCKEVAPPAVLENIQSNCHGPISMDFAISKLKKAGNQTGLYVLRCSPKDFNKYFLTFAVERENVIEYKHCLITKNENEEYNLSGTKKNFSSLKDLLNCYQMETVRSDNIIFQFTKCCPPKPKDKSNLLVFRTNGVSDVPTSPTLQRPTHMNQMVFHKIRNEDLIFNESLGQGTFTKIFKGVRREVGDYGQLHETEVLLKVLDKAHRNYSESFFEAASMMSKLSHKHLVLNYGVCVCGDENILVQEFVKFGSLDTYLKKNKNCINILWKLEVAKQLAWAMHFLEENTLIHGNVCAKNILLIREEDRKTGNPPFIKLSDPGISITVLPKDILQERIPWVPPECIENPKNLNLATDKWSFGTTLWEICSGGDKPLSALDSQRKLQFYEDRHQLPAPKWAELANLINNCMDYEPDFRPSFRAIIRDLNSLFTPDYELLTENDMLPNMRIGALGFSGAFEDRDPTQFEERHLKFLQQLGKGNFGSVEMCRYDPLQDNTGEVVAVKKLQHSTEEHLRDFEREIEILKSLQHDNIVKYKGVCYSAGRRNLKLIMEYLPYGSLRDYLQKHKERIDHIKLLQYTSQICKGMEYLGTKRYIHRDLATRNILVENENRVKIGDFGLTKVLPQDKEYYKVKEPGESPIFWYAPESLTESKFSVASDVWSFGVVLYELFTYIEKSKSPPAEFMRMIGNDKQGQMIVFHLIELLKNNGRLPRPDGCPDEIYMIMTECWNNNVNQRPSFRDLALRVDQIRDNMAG
Sequence of JAK1 kinase activity on STAT3 in TF1 cells (P23458 whole entry): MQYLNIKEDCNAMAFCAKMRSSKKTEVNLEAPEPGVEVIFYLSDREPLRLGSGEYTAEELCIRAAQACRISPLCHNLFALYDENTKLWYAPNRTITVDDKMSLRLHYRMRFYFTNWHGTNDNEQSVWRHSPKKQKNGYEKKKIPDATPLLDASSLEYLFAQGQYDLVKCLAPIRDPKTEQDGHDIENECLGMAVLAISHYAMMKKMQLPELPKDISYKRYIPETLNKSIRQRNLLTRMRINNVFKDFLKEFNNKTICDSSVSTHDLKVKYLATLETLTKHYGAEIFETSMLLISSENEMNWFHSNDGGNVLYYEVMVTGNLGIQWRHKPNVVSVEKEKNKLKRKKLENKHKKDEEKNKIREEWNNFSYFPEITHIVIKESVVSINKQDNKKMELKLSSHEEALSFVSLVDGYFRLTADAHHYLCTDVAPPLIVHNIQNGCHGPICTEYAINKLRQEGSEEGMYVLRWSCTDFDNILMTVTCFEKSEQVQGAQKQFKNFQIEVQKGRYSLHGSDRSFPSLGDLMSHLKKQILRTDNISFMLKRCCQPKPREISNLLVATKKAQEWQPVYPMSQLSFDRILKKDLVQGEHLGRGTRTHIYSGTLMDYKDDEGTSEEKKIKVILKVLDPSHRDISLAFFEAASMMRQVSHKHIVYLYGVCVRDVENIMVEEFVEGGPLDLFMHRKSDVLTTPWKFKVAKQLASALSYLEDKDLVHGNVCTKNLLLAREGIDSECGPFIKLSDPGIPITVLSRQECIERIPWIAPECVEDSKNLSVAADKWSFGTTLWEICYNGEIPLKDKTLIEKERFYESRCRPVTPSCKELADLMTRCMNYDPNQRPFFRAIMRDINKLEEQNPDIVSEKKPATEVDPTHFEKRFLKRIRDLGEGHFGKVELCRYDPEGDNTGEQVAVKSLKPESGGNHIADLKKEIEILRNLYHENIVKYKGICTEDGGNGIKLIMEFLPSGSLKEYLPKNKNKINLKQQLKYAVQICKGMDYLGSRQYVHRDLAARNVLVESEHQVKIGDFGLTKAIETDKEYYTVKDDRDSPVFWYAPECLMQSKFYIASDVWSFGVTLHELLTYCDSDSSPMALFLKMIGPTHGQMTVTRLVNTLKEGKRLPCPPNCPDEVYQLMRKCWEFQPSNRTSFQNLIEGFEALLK
T4 sequence (P23458 875-1153 limits assumed): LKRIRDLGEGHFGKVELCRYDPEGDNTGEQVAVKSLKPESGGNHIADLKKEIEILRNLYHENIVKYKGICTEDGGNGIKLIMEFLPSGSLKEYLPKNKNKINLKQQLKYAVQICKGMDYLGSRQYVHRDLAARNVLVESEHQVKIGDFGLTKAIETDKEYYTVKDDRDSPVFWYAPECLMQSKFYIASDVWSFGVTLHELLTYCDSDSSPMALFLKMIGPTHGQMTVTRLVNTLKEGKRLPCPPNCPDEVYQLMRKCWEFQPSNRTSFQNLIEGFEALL
Sequence of Tyk2 kinase activity on STAT4 in NK92 cells (P29597 whole entry): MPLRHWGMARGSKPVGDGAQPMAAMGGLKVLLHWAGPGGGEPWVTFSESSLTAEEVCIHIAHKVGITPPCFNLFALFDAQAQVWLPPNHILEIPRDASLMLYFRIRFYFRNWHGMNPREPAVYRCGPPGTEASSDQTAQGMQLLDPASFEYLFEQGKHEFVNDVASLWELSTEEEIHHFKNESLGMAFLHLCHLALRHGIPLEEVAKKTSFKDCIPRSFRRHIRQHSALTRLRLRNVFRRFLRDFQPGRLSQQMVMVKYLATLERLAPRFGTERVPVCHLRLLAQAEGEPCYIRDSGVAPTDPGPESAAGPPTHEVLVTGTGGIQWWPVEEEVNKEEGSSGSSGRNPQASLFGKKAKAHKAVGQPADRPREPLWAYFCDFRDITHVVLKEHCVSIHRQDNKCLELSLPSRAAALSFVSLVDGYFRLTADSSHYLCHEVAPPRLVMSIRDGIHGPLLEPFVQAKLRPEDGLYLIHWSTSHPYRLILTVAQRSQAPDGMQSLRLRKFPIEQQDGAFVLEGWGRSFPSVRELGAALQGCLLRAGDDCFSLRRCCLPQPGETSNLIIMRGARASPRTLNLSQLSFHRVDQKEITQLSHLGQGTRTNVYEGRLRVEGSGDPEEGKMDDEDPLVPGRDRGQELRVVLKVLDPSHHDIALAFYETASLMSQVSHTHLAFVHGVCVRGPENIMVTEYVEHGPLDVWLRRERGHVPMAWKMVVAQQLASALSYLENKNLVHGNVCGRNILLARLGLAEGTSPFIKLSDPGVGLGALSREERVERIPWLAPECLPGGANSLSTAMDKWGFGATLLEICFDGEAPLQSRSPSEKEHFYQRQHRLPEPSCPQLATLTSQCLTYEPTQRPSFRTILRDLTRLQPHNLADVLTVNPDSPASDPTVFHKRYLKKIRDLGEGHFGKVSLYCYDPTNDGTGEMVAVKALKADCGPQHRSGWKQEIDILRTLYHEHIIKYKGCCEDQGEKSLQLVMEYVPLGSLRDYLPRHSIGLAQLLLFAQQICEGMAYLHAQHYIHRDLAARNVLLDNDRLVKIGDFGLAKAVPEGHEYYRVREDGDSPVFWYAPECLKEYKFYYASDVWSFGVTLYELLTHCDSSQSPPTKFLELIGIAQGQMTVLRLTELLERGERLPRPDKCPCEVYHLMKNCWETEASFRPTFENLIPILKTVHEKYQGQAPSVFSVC
T3 sequence (P52333 822-1111 limits assumed): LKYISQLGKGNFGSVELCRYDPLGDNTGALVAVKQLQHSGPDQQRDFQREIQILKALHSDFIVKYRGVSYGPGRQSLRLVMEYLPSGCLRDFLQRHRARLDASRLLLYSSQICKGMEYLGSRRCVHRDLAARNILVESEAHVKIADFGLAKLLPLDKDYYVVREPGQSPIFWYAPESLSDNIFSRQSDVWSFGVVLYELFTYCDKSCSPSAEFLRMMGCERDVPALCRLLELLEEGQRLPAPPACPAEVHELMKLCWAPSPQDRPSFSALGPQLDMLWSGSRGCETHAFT
T1 sequence (O60674 849-1124 limits assumed): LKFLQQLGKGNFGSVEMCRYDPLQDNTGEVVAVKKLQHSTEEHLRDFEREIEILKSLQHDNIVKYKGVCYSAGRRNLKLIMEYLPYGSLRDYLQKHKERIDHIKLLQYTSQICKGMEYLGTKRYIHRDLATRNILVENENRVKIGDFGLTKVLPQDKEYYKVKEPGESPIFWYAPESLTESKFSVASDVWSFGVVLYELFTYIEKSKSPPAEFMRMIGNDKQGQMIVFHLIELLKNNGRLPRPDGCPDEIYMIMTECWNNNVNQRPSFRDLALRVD

Row | SMILES | IC50 ([1]; JH1 kinase domain, ADP-Glo) [nM] | IC50 [2] [nM] | IC50 ([3]; JH1 kinase domain, ADP-Glo) [nM] | IC50 [4] [µM] | IC50 [5] [µM] | IC50 ([6]; JH1 kinase domain, ADP-Glo) [nM] | IC50 ([7]; JH1 kinase domain, ADP-Glo) [nM] | IC50 ([1]; JAK2 JH1, ADP-Glo) [nM] | IC50 ([3]; TYK2 JH1, ADP-Glo) [nM] | IC50 ([6]; JAK3 JH1, ADP-Glo) [nM] | IC50 ([7]; JAK1 JH1, ADP-Glo) [nM]
1 | CCn1cc(-c2cn3nccc3c(N3C[C@@H](C)[C@@](C#N)(C4CC4)C3=O)n2)cn1 [Example 202, (3R,4S)-3-cyclopropyl-1-(6-(1-ethyl-1H-pyrazol-4-yl)pyrazolo[1,5-a]pyrazin-4-yl)-4-methyl-2-oxopyrrolidine-3-carbonitrile] | < 100 | 50 to 100 | < 5 | 0.1 to 1 | 0.1 to 1 | < 100 | < 100 | – | – | – | –
2 | C[C@@H]1CN(c2cc(-c3cnn(C)c3)cn3nccc23)C(=O)[C@]1(C#N)C1CC1 [Example 271, (3R,4S)-3-cyclopropyl-4-methyl-1-(6-(1-methyl-1H-pyrazol-4-yl)pyrazolo[1,5-a]pyridin-4-yl)-2-oxopyrrolidine-3-carbonitrile] | – | > 100 | – | > 10 | > 10 | – | – | 1000 to 5000 | 5 to 20 | 100 to 1000 | 100 to 1000
3 | C[C@@H]1CN(c2nc(-c3cnn4c3COCC4)cn3ncc(F)c23)C(=O)[C@]1(C#N)C1CC1 [Example 192, (3R,4S)-3-cyclopropyl-1-(6-(6,7-dihydro-4H-pyrazolo[5,1-c][1,4]oxazin-3-yl)-3-fluoropyrazolo[1,5-a]pyrazin-4-yl)-4-methyl-2-oxopyrrolidine-3-carbonitrile] | 100 to 1000 | > 100 | 5 to 20 | > 10 | 1 to 5 | < 100 | < 100 | – | – | – | –
4 | C[C@@H]1CN(c2ccnn3cc(-c4cnn(C5CCCC5)c4)cc23)C(=O)[C@]1(C#N)C1CC1 [Example 170, (3R,4S)-1-(6-(1-cyclopentyl-1H-pyrazol-4-yl)pyrrolo[1,2-b]pyridazin-4-yl)-3-cyclopropyl-4-methyl-2-oxopyrrolidine-3-carbonitrile] | < 100 | > 100 | < 5 | 5 to 10 | 5 to 10 | < 100 | < 100 | – | – | – | –
5 | C[C@@H]1CN(c2nc(-c3cnn(-c4ccccn4)c3)cn3nccc23)C(=O)[C@]1(C#N)C1CC1 [Example 296, (3R,4S)-3-cyclopropyl-4-methyl-2-oxo-1-(6-(1-(pyridin-2-yl)-1H-pyrazol-4-yl)pyrazolo[1,5-a]pyrazin-4-yl)pyrrolidine-3-carbonitrile] | – | 20 to 50 | – | 1 to 5 | 0.1 to 1 | – | – | 100 to 1000 | < 5 | < 100 | < 100
6 | C[C@@H]1CN(c2ccnn3cc(-c4nc5cnccc5s4)cc23)C(=O)[C@]1(C#N)C1CC1 [Example 102, (3R,4S)-3-cyclopropyl-4-methyl-2-oxo-1-(6-(thiazolo[4,5-c]pyridin-2-yl)pyrrolo[1,2-b]pyridazin-4-yl)pyrrolidine-3-carbonitrile trifluoroacetate] | 1000 to 5000 | > 100 | 5 to 20 | > 10 | 5 to 10 | 100 to 1000 | 100 to 1000 | – | – | – | –
7 | C[C@@H]1CN(c2ccnc3[nH]c(-c4cnn(C)c4)nc23)C(=O)[C@]1(C#N)C1CC1 [Example 181, (3R,4S)-3-cyclopropyl-4-methyl-1-(2-(1-methyl-1H-pyrazol-4-yl)-3H-imidazo[4,5-b]pyridin-7-yl)-2-oxopyrrolidine-3-carbonitrile] | 100 to 1000 | > 100 | 5 to 20 | 5 to 10 | 1 to 5 | 100 to 1000 | 100 to 1000 | – | – | – | –
